Results taken from patent US20260199481A1, “PROTEIN DEGRADATION TARGETING CHIMERA COMPOUND, COMPOSITION THEREOF, AND USE THEREOF” (TSINGHUA UNIVERSITY, priority 2022, published 2026).
Read-outs that look alike come from different tables or passages of the source.

Key:
BRD4 = molecular target: T1, BRD4 (Homo sapiens, UniProt O60885); assay: Protein degradation activity, Western blotting of BRD4 in MCF-7 cells; format: cell-based; conditions: FIG. 3
T1 construct: endogenous in cells; host or cells: MCF-7
Protocol: Cell treatment: MCF-7 cells in the logarithmic growth phase were taken for the experiment. Cells were inoculated in six-well plates at a density of 5.0×10^5 cells/per well and incubated at 37° C. for 24 hours. […]
Whole cell protein extraction: After completion of drug treatment, the culture medium was discarded, and the cells were washed 3 times with pre-cooled PBS. Cells were scraped off using a cell scraper, and the resulting solution was carefully aspirated and centrifuged at 300 g for 5 min at 4° C. to obtain cells, which were washed with PBS, resuspended, and centrifuged under the same conditions.
Cell lysis: Cells were washed with pre-cooled PBS and lysed in pre-cooled lysis buffer (containing 1% protease and phosphatase inhibitor) for 30 min, and cells were vigorously vortexed several times during lysis. After lysis was completed, the cells were centrifuged at 11,000 g for 15 min at 4° C., and the supernatant was collected as whole cell protein.
Protein denaturation: protein concentration was measured by Bradford assay. Proteins were diluted using 4× Protein Sampling Buffer. Subsequently, the proteins were denatured by heating in a metal bath at 100° C. for 15 min.
Protein Immunoblotting Assay (Western Blotting, WB) was Performed to Quantify BRD4 Protein:
1) Protein electrophoresis: proteins were separated in 4-12% or 4-20% Bis-Tris SDS-PAGE gels. The appropriate volume of the above cell whole protein extract was added to the lanes of the above SDS-PAGE gel. Turn on the power and electrophoresis at 120 V for 15 minutes, then adjust the voltage to 180 V and continue electrophoresis until the loading buffer reaches the lowest end of the gel.
(2) Membrane transfer: After electrophoresis, remove the gel, cut a PVDF membrane […] of the appropriate size and activate the membrane with anhydrous methanol, and install the membrane transfer device in the following order from the negative pole to the positive pole: sponge cushion, gel, PVDF membrane, sponge cushion. After installing the membrane transfer device, place it in the corresponding membrane transfer tank, check the liquid level of the solution required for membrane transfer, turn on the power, and complete the membrane transfer after 3 transfer cycles.
3) Blocking: Place the membrane in QuickBlock™ Western Blocking Buffer and shake it for 20 minutes at room temperature.
4) Primary antibody incubation: After the blocking, discard the blocking solution, add the primary antibody diluted to the appropriate concentration, and gently shake the membrane overnight at 4° C. After completing the incubation, wash the membrane 4 times with 1×TBST for 5 min/time.
(5) Secondary antibody incubation: Add secondary antibody diluted to the appropriate concentration and gently shake the PVDF membrane for 1 hour at room temperature. After incubation, the membrane was washed 4 times with 1×TBST for 5 min/time.
6) Developing: Prepare the ECL developing solution before developing. Lay the PVDF membrane flat on a clean plastic wrap, add the developer solution to the membrane, and let it stand for 1 minute away from light. Subsequently, the PVDF membrane was imaged on a gel system.

MCF-7 cell line = assay: In vivo anti-tumor activity, MCF-7 tumor model; design: species or system BALB/c nude mice; conditions: for tumor growth (tumor volume): 10 mg/kg subcutaneous injection
Protocol: To investigate the in vivo activation and antitumor activity of the PROTAC compound AS2 and X-ray-responsive PROTAC compound A1, we performed in vivo antitumor activity studies. The MCF-7 cell line was selected, and experiments were performed in BALB/c nude mice. Experimental animals: BALB/c nude mice (female; 6-8 weeks old) were all purchased from Beijing Vital River Laboratory Animal Technology Co., Ltd and housed in pathogen-free conditions with standard temperature and humidity at the Laboratory Animal Resources Center of Tsinghua University. All animal experiments were approved by the Animal Ethics Committee of Tsinghua University. Tumor model establishment: MCF-7 cells in logarithmic growth phase were taken, and 0.25% trypsin was added to digest the cells after washing the cells for 3 times with pre-cooled PBS buffer. The digested cells were centrifuged at 1000 rpm/min for 5 min, the precipitate was discarded, and the cells were resuspended with pre-cooled PBS and carefully blown to make a single-cell solution. After the cells were counted by a counter, the cell density was adjusted to 1×10^7 cells/mL, and 10 mL was taken into a centrifuge tube and stored on ice. Before inoculation of cancer cells, nude mice were gently wiped under the skin of the right axilla with a paper towel sprayed with 75% alcohol. A 1 mL disposable syringe was used to aspirate 200 μL of cell suspension, and the air in the needle was removed, and a single subcutaneous injection was carried out by puncturing about 1 cm forward from the needle inlet site. The needle was withdrawn slowly to avoid fluid leakage. Observe the tumor growth status daily. Drug administration: When the tumor volume reached 120 mm^3, the tumor-bearing mice were randomly grouped. Six groups were set up, namely PBS, PROTAC drug AS2, PROTAC prodrug A1, PBS+X-ray irradiation, PROTAC drug AS2+X-ray irradiation, and PROTAC prodrug A1+X-ray irradiation. Each drug was dispersed in the following solution: 1.25% DMSO+20% PEG+5% Tween 80+73.75% dd H2O; administered dose: 10 mg/kg; subcutaneous injection. X-ray irradiation was performed 3 hours after drug injection. The irradiation dose was 5 Gy. Tumor size and body weight were monitored every other day. Tumor volume was calculated using the formula: tumor volume=length×width^2/2. After 16 days of monitoring, mice in each group were euthanized, and tumors and major organs were collected.

MCF-7 cells = assay: In vitro anti-tumor effect, CellTiter 96 viability assay; format: cell-based; conditions: Homo sapiens, MCF7, light or radiation study
Protocol: Experimental Procedure: MCF-7 cells in the logarithmic growth phase were used for the experiment. The cells were seeded at 5000 cells per well in 96-well plates and incubated for 24 hours at 37° C. The cells were treated with Example compounds A1-D3 for 3 h. Subsequently, the irradiated group was irradiated with 10-30 Gy of X-rays, and the cells were continued to be incubated until 72 h after completion of irradiation. At the end of drug treatment, 20 μL of CellTiter 96° solution was added to each well. The well plates were incubated in an incubator for 2-4 hours, and then the absorbance was measured using a plate reader. Data were analyzed with GraphPad Prism software to obtain the IC50 values of each test compound.

[1] = compound 3 h, then X-rays 10 Gy or 30 Gy, 72 h after irradiation, read-out: Irradiation with 10 Gy or 30 Gy IC50
[2] = no irradiation, 72 h incubation, read-out: Radiation-free IC50

Cc1ncsc1-c1ccc([C@H](C)NC(=O)[C@@H]2C[C@@H](O)CN2C(=O)[C@H](NC(=O)COCCOCCOCCNC(=O)C[C@@H]2N=C(c3ccc(Cl)cc3)c3c(sc(C)c3C)-n3c(C)nnc32)C(C)(C)C)cc1 [AS2]
DC50 (BRD4; WB): 31.2 nM
degradation activity on BRD4 (BRD4; tested concentrations 0-300 nM): effectively degraded BRD4
tumor growth (tumor volume) (MCF-7 cell line; X-ray 5 Gy 3 hours after drug injection): tumor growth was significantly inhibited
tumor growth (tumor volume) (MCF-7 cell line; no irradiation, compared with PBS group): poor antitumor effect
tumor weight at day 16 (MCF-7 cell line; 10 mg/kg subcutaneous, two administrations with radiation therapy, FIG. 9): essentially no tumor growth

COc1cc(COC(=O)O[C@@H]2C[C@@H](C(=O)N[C@@H](C)c3ccc(-c4scnc4C)cc3)N(C(=O)[C@H](NC(=O)COCCOCCOCCNC(=O)C[C@@H]3N=C(c4ccc(Cl)cc4)c4c(sc(C)c4C)-n4c(C)nnc43)C(C)(C)C)C2)cc(OC)c1 [Compound A2]
IC50 (MCF-7 cells; [1]): 103 nM
IC50 (MCF-7 cells; [2]): 1110 nM

Cc1sc2c(c1C)C(c1ccc(Cl)cc1)=N[C@@H](CC(=O)C(CCCCNc1cccc3c1C(=O)N(C1CCC(=O)NC1=O)C3=O)Cc1c(F)c(F)c(F)c(F)c1F)c1nnc(C)n1-2 (stereo partly drawn) [Compound A3]
IC50 (MCF-7 cells; [1]): 273 nM
IC50 (MCF-7 cells; [2]): 2540 nM

Cc1ncsc1-c1ccc([C@H](C)NC(=O)[C@@H]2C[C@@H](OC(=O)OCc3c(F)c(F)c(N=[N+]=[N-])c(F)c3F)CN2C(=O)[C@H](NC(=O)COCCCOCCNC(=O)C[C@@H]2N=C(c3ccc(Cl)cc3)c3c(sc(C)c3C)-n3c(C)nnc32)C(C)(C)C)cc1 [Compound B1]
IC50 (MCF-7 cells; [1]): 119 nM
IC50 (MCF-7 cells; [2]): 1080 nM

COc1cc(COC(=O)O[C@@H]2C[C@@H](C(=O)N[C@@H](C)c3ccc(-c4scnc4C)cc3)N(C(=O)[C@H](NC(=O)COCCCOCCNC(=O)C[C@@H]3N=C(c4ccc(Cl)cc4)c4c(sc(C)c4C)-n4c(C)nnc43)C(C)(C)C)C2)cc(OC)c1 [Compound B2]
IC50 (MCF-7 cells; [1]): 119 nM
IC50 (MCF-7 cells; [2]): 1060 nM

COc1cc(CC(CCCCNc2cccc3c2C(=O)N(C2CCC(=O)NC2=O)C3=O)C(=O)C[C@@H]2N=C(c3ccc(Cl)cc3)c3c(sc(C)c3C)-n3c(C)nnc32)cc(OC)c1 (stereo partly drawn) [Compound B3]
IC50 (MCF-7 cells; [1]): 338 nM
IC50 (MCF-7 cells; [2]): 2760 nM

Cc1ncsc1-c1ccc([C@H](C)NC(=O)[C@@H]2C[C@@H](OC(=O)OCc3c(F)c(F)c(N=[N+]=[N-])c(F)c3F)CN2C(=O)[C@H](NC(=O)CCCCCCCCCCNC(=O)C[C@@H]2N=C(c3ccc(Cl)cc3)c3c(sc(C)c3C)-n3c(C)nnc32)C(C)(C)C)cc1 [Compound C1]
IC50 (MCF-7 cells; [1]): 146 nM
IC50 (MCF-7 cells; [2]): 964 nM

COc1cc(COC(=O)O[C@@H]2C[C@@H](C(=O)N[C@@H](C)c3ccc(-c4scnc4C)cc3)N(C(=O)[C@H](NC(=O)CCCCCCCCCCNC(=O)C[C@@H]3N=C(c4ccc(Cl)cc4)c4c(sc(C)c4C)-n4c(C)nnc43)C(C)(C)C)C2)cc(OC)c1 [Compound C2]
IC50 (MCF-7 cells; [1]): 107 nM
IC50 (MCF-7 cells; [2]): 984 nM

Cc1sc2c(c1C)C(c1ccc(Cl)cc1)=N[C@@H](CC(=O)NCCCCNc1cccc3c1C(=O)N(C1CCC(=O)N(C(=O)OCc4c(F)c(F)c(N)c(F)c4F)C1=O)C3=O)c1nnc(C)n1-2 (stereo partly drawn) [Compound C3]
IC50 (MCF-7 cells; [1]): 970 nM
IC50 (MCF-7 cells; [2]): 1860 nM

Cc1ncsc1-c1ccc([C@H](C)NC(=O)[C@@H]2C[C@@H](OC(=O)OCc3c(F)c(F)c(N=[N+]=[N-])c(F)c3F)CN2C(=O)[C@H](NC(=O)CCOCc2cn(CCOCCNC(=O)C[C@@H]3N=C(c4ccc(Cl)cc4)c4c(sc(C)c4C)-n4c(C)nnc43)nn2)C(C)(C)C)cc1 [Compound D1]
IC50 (MCF-7 cells; [1]): 152 nM
IC50 (MCF-7 cells; [2]): 1220 nM

COc1cc(COC(=O)O[C@@H]2C[C@@H](C(=O)N[C@@H](C)c3ccc(-c4scnc4C)cc3)N(C(=O)[C@H](NC(=O)CCOCc3cn(CCOCCNC(=O)C[C@@H]4N=C(c5ccc(Cl)cc5)c5c(sc(C)c5C)-n5c(C)nnc54)nn3)C(C)(C)C)C2)cc(OC)c1 [Compound D2]
IC50 (MCF-7 cells; [1]): 127 nM
IC50 (MCF-7 cells; [2]): 1010 nM

COc1cc(COC(=O)N2C(=O)CCC(N3C(=O)c4cccc(NCCCCNC(=O)C[C@@H]5N=C(c6ccc(Cl)cc6)c6c(sc(C)c6C)-n6c(C)nnc65)c4C3=O)C2=O)cc(OC)c1 (stereo partly drawn) [Compound D3]
IC50 (MCF-7 cells; [1]): 104 nM
IC50 (MCF-7 cells; [2]): 1960 nM
